Assay results as given in PMC12471852, “Design and Synthesis of Marine-Inspired Itampolin A Derivatives to Overcome Chemoresistance in NSCLC via Cholesterol Homeostasis Modulation” (Marine Drugs, 2025).
Several values for one entry are separate records, joined by “and”; a condition that tells them apart may be missing. Identical values can stand only once. Entries after “also recorded” stand apart in the source; their conditions may differ.

Tests used:
[1] = system: PC9/GR cells; test: BODIPY 493/503 lipid droplet staining; assay type: cell-based, human
Source text: To investigate the relationship between intracellular cholesterol levels and gefitinib resistance, we measured cholesterol content in PC9 (gefitinib-sensitive) and PC9/GR (gefitinib-resistant) cells. […] To further elucidate the role of TM7SF2 in mediating the cholesterol-lowering effects of compound 4l in PC9/GR cells, we generated a TM7SF2-overexpressing PC9/GR cell line via plasmid transfection.

[2] = system: PC9/GR cells; test: Transwell migration assay; assay type: cell-based, human
Procedure: Cell migration was assessed using Transwell chambers (8.0 µm pore size; Corning, NY, USA). Cells suspended in serum-free medium were seeded into the upper chamber. The lower chamber contained 1 mL of DMEM supplemented with 10% FBS as a chemoattractant. Following 24 h of incubation, non-migrated cells on the upper membrane surface were removed. Migrated cells adherent to the lower membrane surface were fixed, stained with 0.1% crystal violet (Solarbio, China) for 15 min, and imaged. Migrated cells were quantified by counting five random fields per insert under a light microscope (Olympus, Tokyo, Japan).

[3] = system: p38 activation / C/EBPβ expression; test: Western blot of p38, p-p38 and C/EBPβ; assay type: cell-based, human; conditions: PC9/GR
Source text: We obtained the gene promoter sequence of TM7SF2 from the NCBI database and utilized online databases JASPAR, UCSC, and hTFtarget to predict potential transcription factors for TM7SF2 (Table S2). […] Some studies indicate that p38 can induce C/EBPβ expression through the activation of p38 MAPK, JNK, or ERK in different experimental environments. We conducted Western blot experiments to detect changes in C/EBPβ expression and p38 protein activation and used ChIP and qPCR to determine whether C/EBPβ can target the TM7SF2 promoter region. […] Furthermore, the strength of this direct binding may be related to intracellular cholesterol levels.
Western blot: Proteins extracted with RIPA buffer were quantified (BCA), separated by SDS-PAGE, transferred to PVDF membranes, and probed with antibodies. Signals were detected by ECL.

[4] = system: PC9/GR nude mouse xenografts; test: PC9/GR nude mouse xenograft tumor growth; assay type: in vivo, BALB/c nude mice
Source text: For many years, the technique of implanting human tumor cell lines into nude mice models has been widely used to predict the anti-cancer effects of targeted anti-cancer drugs. In the nude mouse tumor implantation experiment, we continuously monitored the changes in the mouse body weight after administration. […] At the end of the experiment, after euthanizing the nude mice using the spinal dislocation method, we isolated the tumor tissues, weighed them, and conducted statistical analysis.
BALB/c nude mice (n = 12) were subcutaneously injected with PC9/GR cells (1 × 10^7 cells/mouse). When tumors reached 50 mm^3, mice received daily 4l or vehicle (3 weeks). Tumor volume (0.52 × length × width^2) and weight were recorded post-euthanasia.

[5] = system: PC9/GR cells; test: Annexin V-FITC/PI apoptosis, flow cytometry; assay type: cell-based, human; conditions: 24 h, vehicle control 5.2%
Procedure: (§1) To evaluate the tumor-selective activity of compounds 4l and 4m, dose–response studies were performed on wild-type PC9 and gefitinib-resistant PC9/GR cell lines. […] Subtoxic concentrations of 25, 50, and 75 μM were employed to ensure specificity for drug-resistant phenotypes while preserving normal cell viability. […] To assess long-term proliferative potential, clonogenic survival assays were performed. Cells pretreated with 4l (24 h) were trypsinized to generate single-cell suspensions, plated at 300 cells/well, and cultured for 14 days. […] Cell migration ability was evaluated by the scratch healing assay. […] To evaluate the pro-apoptotic efficacy of 4l, we employed a dual-staining approach using Annexin V-FITC and propidium iodide (PI) for quadrant-specific quantification of programmed cell death. Annexin V binds externalized phosphatidylserine (PS), a hallmark of early apoptosis, while PI permeabilization discriminates late-stage apoptotic or necrotic cells.
Annexin V/PI Apoptosis: 4l treated cells were stained with Annexin VFITC/PI (15 min, dark), analyzed by flow cytometry (Q2/Q3: late/early apoptosis).

[6] = system: PC9/GR cells; test: MTT anti-proliferation assay, gefitinib-resistant PC9/GR cells; assay type: cell-based, human; conditions: for MTT, PC9/GR, value relative to control (=100), single replicate: 24 h
Procedure: as §1
The human normal lung epithelial cell line BEAS-2B, non-small cell lung carcinoma (NSCLC) cell line PC9, and gefitinib-resistant PC9/GR cell line were purchased from Procell Life Science & Technology Co., Ltd. (Wuhan, China). All cell lines were maintained in RPMI-1640 medium (BI, Beit Haemek, Mateh Asher, Israel) supplemented with 10% fetal bovine serum (FBS, Gibco, Thermo Fisher Scientific, Waltham, MA, USA) and 1% penicillin–streptomycin–amphotericin B sterile solution (Solarbio, Beijing, China). Cells were cultured at 37 °C in a humidified incubator with 5% CO2. For subculturing, cells were harvested using trypsin-EDTA solution upon reaching 70–80% confluence and resuspended at appropriate densities for subsequent experiments.
MTT: Cells (5 × 10^4/mL) were treated with 4l (25–100 μM, 24–48 h), incubated with MTT (10 μL/well, 4–6 h), and dissolved in DMSO. Absorbance (490 nm) was measured to assess viability.

[7] = system: PC9/GR cells; test: Intracellular total cholesterol quantification, PC9/GR cells; assay type: cell-based, human
Procedure: (§2) Following sample collection, intracellular total cholesterol levels were quantified using a commercial Total Cholesterol (T-CHO) assay kit (Nanjing Jiancheng Bioengineering Institute, Nanjing, China) according to the manufacturer’s protocol. Cells were treated as indicated 24 h prior to analysis. Total cellular protein was extracted, and protein concentration was determined using a bicinchoninic acid (BCA) assay. Protein aliquots were loaded in duplicate into a 96-well microplate. Reagents were added sequentially as specified in the kit instructions. After incubation at 37 °C for 10 min, absorbance was measured at 510 nm using a microplate reader. Total cholesterol content was normalized to cellular protein concentration and expressed as μg cholesterol per mg protein.

[8] = system: PC9 cells; test: Intracellular total cholesterol quantification, PC9 cells; assay type: cell-based, human; conditions: PC9, 24 h treatment
Procedure: as §2

[9] = molecular target: p38α (Homo sapiens, UniProt Q16539); test: ADP-Glo Kinase Assay, p38α MAP kinase inhibition; assay type: biochemical; conditions: read-out: p38α MAP kinase inhibitory activity IC50
Chain of p38α (Q16539 whole entry): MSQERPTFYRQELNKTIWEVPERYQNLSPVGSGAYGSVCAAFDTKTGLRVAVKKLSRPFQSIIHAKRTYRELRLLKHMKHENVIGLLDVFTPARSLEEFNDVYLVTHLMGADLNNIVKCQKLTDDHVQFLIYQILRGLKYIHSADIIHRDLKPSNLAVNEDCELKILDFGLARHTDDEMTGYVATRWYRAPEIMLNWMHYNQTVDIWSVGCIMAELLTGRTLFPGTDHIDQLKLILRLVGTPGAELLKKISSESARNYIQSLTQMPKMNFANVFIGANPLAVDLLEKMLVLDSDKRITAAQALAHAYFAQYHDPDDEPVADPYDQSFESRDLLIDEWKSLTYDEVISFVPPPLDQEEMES
Procedure: The capacity of brominated tyrosine derivatives to inhibit p38α activity was evaluated using the ADP-Glo Kinase Assay.

[10] = TM7SF2-overexpressing PC9/GR cells

Question: For `O=C(NCCc1cc(Br)c(O)c(Br)c1)Nc1ccc(F)cc1` [4l, 1-(3,5-dibromo-4-hydroxyphenethyl)-3-(4-fluorophenyl)urea], which lipid droplet accumulation [1] is on record?
Answer: significantly inhibited this lipid accumulation

Question: And the “PC9/GR cell motility (Transwell migration)” value ([2]; 25, 50 and 75 μM)?
Answer: significant suppression

Question: What about the “effect of TM7SF2 overexpression on 4l inhibition of migration, proliferation and invasion” value [2, 10] of the same compound?
Answer: attenuated the inhibitory effects

Question: And the “C/EBPβ expression and p38 activation” value [3]?
Answer: reduce C/EBPβ expression by inhibiting p38 activation

Question: What about the “tumor growth inhibition compared to gefitinib-treated group” value ([4]; 200 mg/kg of gefitinib and compound 4l) of the same compound?
Answer: stronger inhibitory effect

Question: What about the “in vivo growth of PC9/GR xenografts (tumor volume)” value ([4]; 200 mg/kg, daily, 3 weeks, p < 0.05) of the same compound?
Answer: effectively inhibited; also recorded: significant suppression; also recorded: significantly inhibited tumor growth

Question: And the excised tumor weight ([4]; end of experiment)?
Answer: consistent with the volume data

Question: And the total apoptosis ([5]; 25 μM)?
Answer: 9.1%

Question: And the total apoptosis ([5]; 50 μM)?
Answer: 13.13%

Question: And the total apoptosis ([5]; 75 μM)?
Answer: 19.53%

Question: What about the “MTT, PC9/GR, value relative to control (=100), single replicate” value (“MTT, PC9/GR, value relative to control” below) ([6]; 25 (μM)) of the same compound?
Answer: 50.73 and 45.72 and 48.62 and 42.88

Question: And the “MTT, PC9/GR, value relative to control” value ([6]; 50 (μM))?
Answer: 40.96 and 39.65 and 38.32 and 38.58

Question: And the “MTT, PC9/GR, value relative to control” value ([6]; 75 (μM))?
Answer: 35.79 and 34.89 and 36.33 and 34.75

Question: What about the “MTT, PC9/GR, value relative to control” value ([6]; 100 (μM)) of the same compound?
Answer: 32.66 and 25.67 and 34.43 and 24.78

Question: And the IC50 ([6]; Homo sapiens, gefitinib-resistant PC9/GR, MTT, 24-hour treatment, 0–100 μM, read-out: IC50, growth inhibition)?
Answer: 35.2 µM

Question: And the intracellular cholesterol levels ([7]; PC9/GR, 24 h treatment)?
Answer: reduced intracellular cholesterol levels

Question: And the “effect of TM7SF2 overexpression on the 4l-induced change in intracellular cholesterol” value [7, 10]?
Answer: abrogated the reduction in intracellular cholesterol levels

Question: And the intracellular cholesterol levels [8]?
Answer: no significant effect

Question: And the IC50 [9]?
Answer: 0.0097 ± 0.0014 µM
